From US20200055839A1 (priority 2017, published 2020)

Tested on: NL-RLuc virus
Experiment: Inhibition of HIV replication (NL-RLuc virus, luciferase readout in MT-2 cells)
Assay type: cell-based
Conditions: Human immunodeficiency virus 1, MT2, 120 h, MT-2 cells infected with NL-RLuc virus, 5 days of incubation, 10% FBS, at least 2 experiments
Excerpt: Inhibition of HIV Replication:
A recombinant NL-RLuc proviral clone was constructed in which a section of the nef gene form NL4-3 was replaced with the Renilla Luciferase gene. This virus is fully infectious and can undergo multiple cycles of replication in cell culture. In addition, the luciferous reporter provides a simple and easy method for quantitating the extent of virus growth and consequently, the antiviral activity of test compounds. The plasmid pNLRLuc contains the proviral NL-Rluc DNA cloned into pUC18 at the PvuII site. The NL-RLuc virus was prepared by transfection of 293T cells with the plasmid pNLRLuc. Transfections were performed using the LipofectAMINE PLUS kit form Invitrogen (Carlsbad, Calif.) according to the manufacturer and the virus generated was titered in MT-2 cells. For susceptibility analyses, the titrated virus was used to infect MT-2 cells in the presence of compound, and after 5 days of incubation, cells were processed and quantitated for virus growth by the amount of expressed luciferase. Assay media was RPMI 1640 supplemented with 10% heat inactivated fetal bovine serum (FBS), 100 units/ml penicillin G/100 units/ml streptomycin, 10 mM HEPES buffer pH 7.55 and 2 mM L-glutamine. The results form at least 2 experiments were used to calculate the EC50 values. Luciferase was quantitated using the Dual Luciferase kit form Promega (Madison, Wis.). Susceptibility of viruses to compounds was determined by incubation in the presence of serial dilutions of the compound. The 50% effective concentration (EC50) was calculated by using the exponential form of the median effect equation where (Fa)=1/[1+(ED50/drug conc.)^m](Johnson V A, Byington R T. Infectivity Assay. In Techniques in HIV Research. ed. Aldovini A, Walker B D. 71-76. New York: Stockton Press. 1990).

Structure (SMILES) | EC50
Cc1ncc(-c2ccc(CNc3ncnc4c3oc3ccccc34)c(F)c2)c(N2CCC(C)(C)CC2)c1[C@H](OC(C)(C)C)C(=O)O [Example 218, (S)-2-(5-(4-((Benzofuro[3,2-d]pyrimidin-4-ylamino)methyl)-3-fluorophenyl)-4-(4,4-dimethylpiperidin-1-yl)-2-methylpyridin-3-yl)-2-(tert-butoxy)acetic acid] | 0.2 nM
Cc1nc(Nc2ccncc2)c(-c2ccc(OCCc3ccc(F)cc3)cc2)c(N2CCC(C)(C)CC2)c1[C@H](OC(C)(C)C)C(=O)O [Example 77, (S)-2-(tert-Butoxy)-2-(4-(4,4-dimethylpiperidin-1-yl)-5-(4-(4-fluorophenethoxy)phenyl)-2-methyl-6-(pyridin-4-ylamino)pyridin-3-yl)acetic acid] | 0.6 nM
COc1c(F)cc(-c2c(CN3CCC4(CCC4)CC3)nc(C)c([C@H](OC(C)(C)C)C(=O)O)c2N2CCC(C)(C)CC2)cc1F [Example 194, (2S)-2-[6-({7-Azaspiro[3.5]nonan-7-yl}methyl)-5-(3,5-difluoro-4-methoxyphenyl)-4-(4,4-dimethylpiperidin-1-yl)-2-methylpyridin-3-yl]-2-(tert-butoxy)acetic acid] | 0.6 nM
Cc1ncc(-c2cnc(OCCc3cccc(F)c3)c(Cl)c2)c(N2CCC(C)(C)CC2)c1[C@H](OC(C)(C)C)C(=O)O [Example 251, (S)-2-(tert-Butoxy)-2-(5′-chloro-4-(4,4-dimethylpiperidin-1-yl)-6′-(3-fluorophenethoxy)-6-methyl-[3, 3′-bipyridin]-5-yl)acetic acid] | 2 nM
Cc1ncc(-c2cccc(F)c2C)c(N2CCC(C)(C)CC2)c1[C@H](OC(C)(C)C)C(=O)O [Example 160, (2S)-2-(tert-Butoxy)-2-[4-(4,4-dimethylpiperidin-1-yl)-5-(3-fluoro-2-methylphenyl)-2-methylpyridin-3-yl]acetic acid] | 13 nM
Cc1nc(NCCCN(C)C)c(-c2ccc(OCCc3ccc(F)cc3)cc2)c(N2CCC(C)(C)CC2)c1[C@H](OC(C)(C)C)C(=O)O [Example 40, (S)-2-(tert-Butoxy)-2-(6-((3-(dimethylamino)propyl)amino)-4-(4,4-dimethylpiperidin-1-yl)-5-(4-(4-fluorophenethoxy)phenyl)-2-methylpyridin-3-yl)acetic acid] | 2 nM
Cc1ncc(-c2ccc(OCCc3ccc(Cl)cc3)cn2)c(N2CCC(C)(C)CC2)c1[C@H](OC(C)(C)C)C(=O)O [Example 309, (2S)-2-(tert-butoxy)-2-{5-[2-(4-chlorophenyl)ethoxy]-4′-(4,4-dimethylpiperidin-1-yl)-6′-methyl-[2,3′-bipyridine]-5′-yl}acetic acid] | 0.4 nM
CNc1nc(C)c([C@H](OC(C)(C)C)C(=O)O)c(N2CCC(C)(C)CC2)c1-c1ccc(OCCc2ccc(F)cc2)c(F)c1 [Example 108, (S)-2-(tert-Butoxy)-2-(4-(4,4-dimethylpiperidin-1-yl)-5-(3-fluoro-4-(4-fluorophenethoxy)phenyl)-2-methyl-6-(methylamino)pyridin-3-yl)acetic acid] | 3 nM
Cc1nc(C(=O)N[C@H]2CC[C@H](C)CC2)c(-c2ccc(OCCc3ccc(F)cc3)cc2)c(N2CCC(C)(C)CC2)c1[C@H](OC(C)(C)C)C(=O)O [Example 12, (S)-2-(tert-Butoxy)-2-(4-(4,4-dimethylpiperidin-1-yl)-5-(4-(4-fluorophenethoxy)phenyl)-2-methyl-6-(((1 r, 4S)-4-methylcyclohexyl)carbamoyl)pyridin-3-yl)acetic acid] | 4 nM
CC(C)COc1ccc(-c2cnc(CF)c([C@H](OC(C)(C)C)C(=O)O)c2N2CCC(C)(C)CC2)nc1 [Example 278, (S)-2-(tert-Butoxy)-2-(4′-(4,4-dimethylpiperidin-1-yl)-6′-(fluoromethyl)-5-isobutoxy-[2, 3′-bipyridin]-5′-yl)acetic acid] | 4 nM
Cc1nc(CN2CCC3(CCC3)CC2)c(-c2cc(F)c(F)c(F)c2)c(N2CCC(C)(C)CC2)c1[C@H](OC(C)(C)C)C(=O)O [Example 193, (2S)-2-[6-({7-Azaspiro[3.5]nonan-7-yl}methyl)-4-(4,4-dimethylpiperidin-1-yl)-2-methyl-5-(3,4,5-trifluorophenyl)pyridin-3-yl]-2-(tert-butoxy)acetic acid] | 4 nM
CC1(C)CCN(c2c(-c3ccc(OCCc4ccc(F)cc4)cc3)cncc2[C@H](OC(C)(C)C)C(=O)O)CC1 [Example 200, (S)-2-(tert-Butoxy)-2-(4-(4,4-dimethylpiperidin-1-yl)-5-(4-(4-fluorophenethoxy)phenyl)pyridin-3-yl)acetic acid] | 2 nM
Cc1cc(F)c(F)c(-c2cnc(C)c([C@H](OC(C)(C)C)C(=O)O)c2N2CCC(C)(C)CC2)c1 [Example 170, (2S)-2-(tert-Butoxy)-2-[5-(2,3-difluoro-5-methylphenyl)-4-(4,4-dimethylpiperidin-1-yl)-2-methylpyridin-3-yl]acetic acid] | 19 nM
Cc1nc(-c2cnn(C)c2C)c(-c2ccc(OCCc3ccc(F)cc3)cc2)c(N2CCC(C)(C)CC2)c1[C@H](OC(C)(C)C)C(=O)O [Example 49, (S)-2-(tert-Butoxy)-2-(6-(1,5-dimethyl-1H-pyrazol-4-yl)-4-(4,4-dimethylpiperidin-1-yl)-5-(4-(4-fluorophenethoxy)phenyl)-2-methylpyridin-3-yl)acetic acid] | 0.7 nM
Cc1nc(-c2cccnc2)c(-c2ccc(OCCc3ccc(F)cc3)cc2)c(N2CCC(C)(C)CC2)c1[C@H](OC(C)(C)C)C(=O)O [Example 41, (S)-2-(tert-Butoxy)-2-(4-(4,4-dimethylpiperidin-1-yl)-3-(4-(4-fluorophenethoxy)phenyl)-6-methyl-[2, 3′-bipyridin]-5-yl)acetic acid] | 4 nM
COc1cc(-c2cnc(C)c([C@H](OC(C)(C)C)C(=O)O)c2N2CCC(C)(C)CC2)cnc1OCC(C)C [Example 410, (S)-2-(tert-Butoxy)-2-(4-(4,4-dimethylpiperidin-1-yl)-6′-isobutoxy-5′-methoxy-6-methyl-[3,3′-bipyridin]-5-yl)acetic acid] | 6 nM
Cc1nc(C(N)=O)c([C@H](OC(C)(C)C)C(=O)O)c(N2CCC(C)(C)CC2)c1-c1ccc(OCCc2ccc(F)cc2)cc1 [Example 6, (S)-2-(tert-Butoxy)-2-(2-carbamoyl-4-(4,4-dimethylpiperidin-1-yl)-5-(4-(4-fluorophenethoxy)phenyl)-6-methylpyridin-3-yl)acetic acid] | 14 nM
Cc1ncc(-c2ccc(OCCc3cccc(F)c3)cn2)c(N2CCC(C)(C)CC2)c1[C@H](OC(C)(C)C)C(=O)O [Example 304, (2S)-2-(tert-butoxy)-2-[4′-(4,4-dimethylpiperidin-1-yl)-5-[2-(3-fluorophenyl)ethoxy]-6′-methyl-[2,3′-bipyridine]-5′-yl]acetic acid] | 0.5 nM
Cc1ncc(-c2ccc(NCCc3ccc(F)cc3)nc2)c(N2CCC(C)(C)CC2)c1[C@H](OC(C)(C)C)C(=O)O [Example 110, (S)-2-(tert-Butoxy)-2-(4-(4,4-dimethylpiperidin-1-yl)-6′-((4-fluorophenethyl)amino)-6-methyl-[3, 3′-bipyridin]-5-yl)acetic acid] | 2 nM
Cc1nc(C(C)(C)O)c(-c2ccc(OCCc3ccc(F)cc3)c(F)c2)c(N2CCC(C)(C)CC2)c1[C@H](OC(C)(C)C)C(=O)O (single isomer, unassigned) [Example 242] | 5 nM
Cc1ncc(-c2ccc(OC(C)C)c(F)c2F)c(N2CCC(C)(C)CC2)c1[C@H](OC(C)(C)C)C(=O)O [Example 169, (2S)-2-(tert-Butoxy)-2-{5-[2,3-difluoro-4-(propan-2-yloxy)phenyl]-4-(4,4-dimethylpiperidin-1-yl)-2-methylpyridin-3-yl}acetic acid] | 7 nM
CCOc1ccc(-c2cnc(C)c([C@H](OC(C)(C)C)C(=O)O)c2N2CCC(C)(C)CC2)cn1 [Example 112, (S)-2-(tert-Butoxy)-2-(4-(4,4-dimethylpiperidin-1-yl)-6′-ethoxy-6-methyl-[3, 3′-bipyridin]-5-yl)acetic acid] | 5 nM
COc1ccc(-c2cnc(C)c([C@H](OC(C)(C)C)C(=O)O)c2N2CCC(C)(C)CC2)cc1F [Example 179, (2S)-2-(tert-Butoxy)-2-[4-(4,4-dimethylpiperidin-1-yl)-5-(3-fluoro-4-methoxyphenyl)-2-methylpyridin-3-yl]acetic acid] | 5 nM
Cc1cccc(COc2ccc(-c3cnc(C)c([C@H](OC(C)(C)C)C(=O)O)c3N3CCC(C)(C)CC3)nc2)c1 [Example 347, (2S)-2-(tert-butoxy)-2-[4′-(4,4-dimethylpiperidin-1-yl)-6′-methyl-5-[(3-methylphenyl)methoxy]-[2,3′-bipyridine]-5′-yl]acetic acid] | 1 nM
CCCOc1ncc(-c2cnc(C)c([C@H](OC(C)(C)C)C(=O)O)c2N2CCC(C)(C)CC2)cc1F [Example 389, (2S)-2-(tert-butoxy)-2-[4-(4,4-dimethylpiperidin-1-yl)-5′-fluoro-6-methyl-6′-propoxy-[3,3′-bipyridine]-5-yl]acetic acid] | 3 nM
